System: 313798-341-R-J2-PDC spheroids, viability
Assay: Anticancer human tumor 313798-341-R-J2-PDC patient-derived cervical squamous cell carcinoma cell line growth inhibition [PI3K]
Details: spheroids with HUVEC and MSC; for IC50: curve of first compound; for viability, T/C: stronger effect = lower value
How it was run: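 Complex 3D spheroids (cancer cells + endothelial HUVEC + mesenchymal stem cells); drug pairs of targeted agent x inavolisib/alpelisib/duvelisib/copanlisib; half-log series from ~Cmax, max 10 microM if Cmax unknown; endpoint viability.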

[1] = second compound 0.0316 µM, first compound 0.0316 µM
[2] = second compound 0.0316 µM, first compound 0.1 µM
[3] = second compound 0.0316 µM, first compound 0.316 µM
[4] = second compound 0.0316 µM, first compound 1 µM
[5] = second compound 0.0316 µM, first compound 3.16 µM
[6] = second compound 0.0316 µM, first compound 10 µM
[7] = second compound 0.1 µM, first compound 0.0316 µM
[8] = second compound 0.1 µM, first compound 0.1 µM
[9] = second compound 0.1 µM, first compound 0.316 µM
[10] = second compound 0.1 µM, first compound 1 µM
[11] = second compound 0.1 µM, first compound 3.16 µM
[12] = second compound 0.1 µM, first compound 10 µM
[13] = second compound 0.316 µM, first compound 0.0316 µM
[14] = second compound 0.316 µM, first compound 0.1 µM
[15] = second compound 0.316 µM, first compound 0.316 µM
[16] = second compound 0.316 µM, first compound 1 µM
[17] = second compound 0.316 µM, first compound 3.16 µM
[18] = second compound 0.316 µM, first compound 10 µM
[19] = second compound 1 µM, first compound 0.0316 µM
[20] = second compound 1 µM, first compound 0.1 µM
[21] = second compound 1 µM, first compound 0.316 µM
[22] = second compound 1 µM, first compound 1 µM
[23] = second compound 1 µM, first compound 3.16 µM
[24] = second compound 1 µM, first compound 10 µM
[25] = second compound 3.16 µM, first compound 0.0316 µM
[26] = second compound 3.16 µM, first compound 0.1 µM
[27] = second compound 3.16 µM, first compound 0.316 µM
[28] = second compound 3.16 µM, first compound 1 µM
[29] = second compound 3.16 µM, first compound 3.16 µM
[30] = second compound 3.16 µM, first compound 10 µM
[31] = second compound 10 µM, first compound 0.0316 µM
[32] = second compound 10 µM, first compound 0.1 µM
[33] = second compound 10 µM, first compound 0.316 µM
[34] = second compound 10 µM, first compound 1 µM
[35] = second compound 10 µM, first compound 3.16 µM
[36] = second compound 10 µM, first compound 10 µM
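Also: spheroids exposed to compounds for seven days.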
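For viability, T/C in this document: 100% = DMSO vehicle control viability.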

With `C=CC(=O)N1CCN(c2nc(=O)n(-c3c(C)ccnc3C(C)C)c3nc(-c4c(O)cccc4F)c(F)cc23)C(C)C1` (centres undefined) + Cc1nc(NC(=O)N2CCCC2C(N)=O)sc1-c1ccnc(C(C)(C)C(F)(F)F)c1 as the molecule, how does the IC50 (second compound 0.0316 µM) read?
Its IC50 is > 10 µM.

What about the IC50 (second compound 0.1 µM) of the same molecule?
Its IC50 is > 10 µM.

And the IC50 (second compound 0.316 µM)?
Its IC50 is > 10 µM.

What about the IC50 (second compound 1 µM) of the same molecule?
Its IC50 is > 10 µM.

And the IC50 (second compound 3.16 µM)?
The IC50 was > 10 µM.

What about the IC50 (second compound 10 µM) of the same molecule?
The IC50 was < 0.0316 µM.

What about the viability, T/C [1] of the same molecule?
The viability, T/C was 99.9%.

What about the viability, T/C [2] of the same molecule?
Its viability, T/C is 101%.

And the viability, T/C [3]?
Its viability, T/C is 96.5%.

What about the viability, T/C [4] of the same molecule?
The viability, T/C was 106%.

And the viability, T/C [5]?
Its viability, T/C is 99.2%.

What about the viability, T/C [6] of the same molecule?
Its viability, T/C is 96%.

And the viability, T/C [7]?
The viability, T/C was 94.4%.

And the viability, T/C [8]?
Its viability, T/C is 94%.

What about the viability, T/C [9] of the same molecule?
Its viability, T/C is 114%.

And the viability, T/C [10]?
The viability, T/C was 86.3%.

What about the viability, T/C [11] of the same molecule?
Its viability, T/C is 94.3%.

What about the viability, T/C [12] of the same molecule?
The viability, T/C was 92.8%.

And the viability, T/C [13]?
Its viability, T/C is 91.2%.

What about the viability, T/C [14] of the same molecule?
Its viability, T/C is 90.2%.

What about the viability, T/C [15] of the same molecule?
Its viability, T/C is 93.1%.

What about the viability, T/C [16] of the same molecule?
Its viability, T/C is 98.8%.

What about the viability, T/C [17] of the same molecule?
Its viability, T/C is 101%.

And the viability, T/C [18]?
Its viability, T/C is 101%.

And the viability, T/C [19]?
The viability, T/C was 89%.

And the viability, T/C [20]?
Its viability, T/C is 89.4%.

What about the viability, T/C [21] of the same molecule?
The viability, T/C was 88.2%.

What about the viability, T/C [22] of the same molecule?
The viability, T/C was 97.3%.

What about the viability, T/C [23] of the same molecule?
Its viability, T/C is 96.7%.

What about the viability, T/C [24] of the same molecule?
Its viability, T/C is 89.5%.

And the viability, T/C [25]?
Its viability, T/C is 67.5%.

And the viability, T/C [26]?
The viability, T/C was 56.5%.

What about the viability, T/C [27] of the same molecule?
Its viability, T/C is 51.9%.

What about the viability, T/C [28] of the same molecule?
The viability, T/C was 67.5%.

What about the viability, T/C [29] of the same molecule?
Its viability, T/C is 67.9%.

And the viability, T/C [30]?
The viability, T/C was 58.5%.

What about the viability, T/C [31] of the same molecule?
Its viability, T/C is 35.2%.

And the viability, T/C [32]?
The viability, T/C was 32.4%.

What about the viability, T/C [33] of the same molecule?
The viability, T/C was 35.7%.

And the viability, T/C [34]?
Its viability, T/C is 32.9%.

And the viability, T/C [35]?
The viability, T/C was 37.9%.

What about the viability, T/C [36] of the same molecule?
Its viability, T/C is 34.2%.

Which results are given for `CC1(C)CCC(CN2CCN(c3ccc(C(=O)NS(=O)(=O)c4ccc(NCC5CCOCC5)c([N+](=O)[O-])c4)c(Oc4cnc5[nH]ccc5c4)c3)CC2)=C(c2ccc(Cl)cc2)C1` + Cc1nc(NC(=O)N2CCCC2C(N)=O)sc1-c1ccnc(C(C)(C)C(F)(F)F)c1?
IC50 (second compound 0.0316 µM): 5.81 µM; IC50 (second compound 0.1 µM): 5.8 µM; IC50 (second compound 0.316 µM): 5.32 µM; IC50 (second compound 1 µM): 4.22 µM; IC50 (second compound 3.16 µM): 1.71 µM; IC50 (second compound 10 µM): < 0.0316 µM; viability, T/C [1]: 102%; viability, T/C [2]: 115%; viability, T/C [3]: 104%; viability, T/C [4]: 101%; viability, T/C [5]: 84.4%; viability, T/C [6]: 19.3%; viability, T/C [7]: 115%; viability, T/C [8]: 101%; viability, T/C [9]: 110%; viability, T/C [10]: 97.9%; viability, T/C [11]: 85%; viability, T/C [12]: 19.8%; viability, T/C [13]: 111%; viability, T/C [14]: 103%; viability, T/C [15]: 112%; viability, T/C [16]: 107%; viability, T/C [17]: 75.7%; viability, T/C [18]: 18.7%; viability, T/C [19]: 91.5%; viability, T/C [20]: 104%; viability, T/C [21]: 97.2%; viability, T/C [22]: 90.7%; viability, T/C [23]: 60.8%; viability, T/C [24]: 17.9%; viability, T/C [25]: 69.3%; viability, T/C [26]: 66.7%; viability, T/C [27]: 63.9%; viability, T/C [28]: 59.3%; viability, T/C [29]: 40.2%; viability, T/C [30]: 18.3%; viability, T/C [31]: 38.6%; viability, T/C [32]: 34.1%; viability, T/C [33]: 38.1%; viability, T/C [34]: 35.7%; viability, T/C [35]: 33%; viability, T/C [36]: 15.1%

Reference: PubChem BioAssay AID1963982 (Molecular Pharmacology Branch, DTP, NCI, 2024)
